Measured values as given in paper PMC6026317, “Molecular elements in FGF19 and FGF21 defining KLB/FGFR activity and specificity” (Molecular Metabolism, 2018).
Each block holds one substance with its values, some of them ahead of it. Ends that are not written are not given here.

Legend:
[1] = system: lean (C57BL/6J) mice; assay: In vivo peptide antagonism study, cFos and EGR1 mRNA in pancreas and eWAT; set-up: species or system mouse; conditions: WAT and pancreas
Description: All animal studies were approved by and performed according to the guidelines of the Institutional Animal Care and Use Committee of the University of Cincinnati (Cincinnati, USA). Eight-week old male C57BL/6J mice (Jackson Laboratories) were given ad libitum access to either a chow diet (lean mice), or a high-fat high-sugar diet (HFD, DIO mice) containing 58% kcal from fat (Research Diets, catalog# D12331). For DIO mice, animals were maintained on the HFD for a minimum of 3 months prior to initiation of the pharmacological studies. The mice were maintained at 22 °C on a 12-h light–dark cycle with free access to water. Before the beginning of the studies, mice were randomized into treatment groups according to body weight. All injections and tests were performed during the light cycle with a group size of n = 8.
Mice were administered vehicle, FGF21 (1 mg/kg), or FGF19 (1 mg/kg) alone or in combination with 19C26,A^26 (30 mg/kg), (dosed 15 min prior to FGF21 or FGF19 administration) via sc injections. One-hour post FGF21 or FGF19 dosing, the mice were sacrificed and their plasma, pancreas, and epididymal white adipose tissue (eWAT) were harvested for analyses. Total RNA was isolated from pancreatic and eWAT tissues using Trizol phenol-chloroform extraction (Invitrogen, Cat#155596026) and purified using an RNeasy mini (Cat#74104) and on-column DNAse digest (Cat#79254) kits (Qiagen). Following reverse transcription, levels of cFos and early growth response-1 (EGR1) mRNA levels were subsequently probed by quantitative PCR (ThermoFisher) and analyzed by ΔΔCT method.
Statistical analyses for in vivo experiments were performed on data using a one- (Figure 5A,B and 5D) or two-way (Figure 5C) ANOVA followed by Tukey post hoc multiple comparison analysis. All results are presented as mean ± SEM, n = 5–8, and P < 0.05 was considered significant. Group size estimations were based upon a power calculation to minimally yield an 80% chance to detect a significant difference in body weight of P < 0.05.

[2] = system: FGF19 signaling in 293/KLB cells; assay: Peptide antagonism of FGF19-induced pERK, AlphaLISA; format: cell-based, human; conditions: fixed dose of FGF19, 10 min at 37° C, n = 3
Method: (§1) 293T HEK cells expressing KLB (or KL) or Hep3B cells were plated to 5–6 x 10^4 cells/well density in 96-well cell culture plate coated with poly-D-Lysine (Corning). The cells were serum starved for four hours in 0.1% BSA fraction V (ThermoFisher) containing media prior to treatment with protein and/or an antagonist peptide at the mentioned concentrations for 10 min at 37° C. For the antagonist assays, a chosen fixed dose within the range of 0.8–30 nM (depending on the cell type) of FGF21 or FGF19 stimulant was added to all the wells. BaF3 cells expressing human KLB/FGFR1c or human KLB/FGFR4-1c chimera were seeded at 5 × 10^5 cells/well density in 96-well cell culture plate and serum-starved overnight. FGF21/19 analogs were diluted in 0.02% Tween-20 containing RPMI1640 medium and the cells were treated for 15 min at 37° C. […] Phosphorylated ERK1/2 (pERK) levels were subsequently recorded by EnSpire Alpha or Envision Multilabel plate reader (Perkin Elmer). […]
(§2) All cellular phosphorylation data were analyzed using 3-parameter non-linear regression curve in GraphPad Prism 7. […] Each peptide and protein analog was tested in triplicates in three independent experiments (n = 3), and normalized graphs plotted are expressed as mean ± SD unless otherwise noted.

[3] = system: FGF21-induced ERK phosphorylation in human KLB overexpressing 293T HEK cells (293/KLB); assay: Peptide antagonism of FGF21-induced pERK, AlphaLISA; format: cell-based; conditions: 293/KLB cells; fixed dose of FGF21, 10 min at 37° C; n = 3
Method: (§3) 293T HEK cells expressing KLB (or KL) or Hep3B cells were plated to 5–6 x 10^4 cells/well density in 96-well cell culture plate coated with poly-D-Lysine (Corning). The cells were serum starved for four hours in 0.1% BSA fraction V (ThermoFisher) containing media prior to treatment with protein and/or an antagonist peptide at the mentioned concentrations for 10 min at 37° C. For the antagonist assays, a chosen fixed dose within the range of 0.8–30 nM (depending on the cell type) of FGF21 or FGF19 stimulant was added to all the wells. BaF3 cells expressing human KLB/FGFR1c or human KLB/FGFR4-1c chimera were seeded at 5 × 10^5 cells/well density in 96-well cell culture plate and serum-starved overnight. FGF21/19 analogs were diluted in 0.02% Tween-20 containing RPMI1640 medium and the cells were treated for 15 min at 37° C. Following the respective cell treatments, the cells were lysed (with lysis buffer provided in the kit) for 10 min at room temperature on a shaker and the lysate was mixed with reaction mixture (consisting of reaction buffer, activation buffer, acceptor and donor beads provided in the kit). Phosphorylated ERK1/2 (pERK) levels were subsequently recorded by EnSpire Alpha or Envision Multilabel plate reader (Perkin Elmer). The cell assays corresponding to 293/KLB or Hep3B cells were carried out with AlphaLISA SureFire Ultra pERK1/2 (Thr 202/Tyr204) kit (Perkin Elmer), and BaF3 cells were done using AlphaScreen pERK1/2 (Thr202/Tyr204) kit (Perkin Elmer).
All cellular phosphorylation data were analyzed using 3-parameter non-linear regression curve in GraphPad Prism 7. Graphs are represented as relative maximal (100%) response of the positive control. All other test analog signals were adjusted accordingly as % values. For antagonistic assays, the difference between the p-ERK signal at baseline (fixed dose of FGF-stimulation, no antagonist peptide added) and the highest dose of the positive control, either FGF21^18−181, 21C25 or 19C26 for respective assay, was set to 100%. Similarly, for an agonist assay, the difference between the p-ERK signal of baseline (only cell culture medium, no agonist) and the highest dose of the positive control either FGF21 in 293/KLB cells or FGF19 in Hep3B cells was used to establish 100% response. Each peptide and protein analog was tested in triplicates in three independent experiments (n = 3), and normalized graphs plotted are expressed as mean ± SD unless otherwise noted.
The C-terminal region of FGF21 binds to KLB as previously implied by FGF21^18−181 antagonism. […] For comparative purposes, we utilized an in vitro assay in which we monitored dose-dependent attenuation of FGF-induced ERK phosphorylation in human KLB overexpressing 293T HEK cells (293/KLB).

[4] = biological target: T1, human FGFR1c/KLB (Homo sapiens, UniProt P11362+Q86Z14); assay: AlphaScreen cell-free binding assay, displacement of biotinylated FGF21; conditions: peptides compete with FGF21 for human FGFR1/KLB complex, mean, n = 2, NC = Not Calculated due to negligible activity at the tested concentrations
T1 construct: while adding human soluble KLB generated a signal; purchased R&D Systems
T1 sequence (Q86Z14 1-996 limits assumed): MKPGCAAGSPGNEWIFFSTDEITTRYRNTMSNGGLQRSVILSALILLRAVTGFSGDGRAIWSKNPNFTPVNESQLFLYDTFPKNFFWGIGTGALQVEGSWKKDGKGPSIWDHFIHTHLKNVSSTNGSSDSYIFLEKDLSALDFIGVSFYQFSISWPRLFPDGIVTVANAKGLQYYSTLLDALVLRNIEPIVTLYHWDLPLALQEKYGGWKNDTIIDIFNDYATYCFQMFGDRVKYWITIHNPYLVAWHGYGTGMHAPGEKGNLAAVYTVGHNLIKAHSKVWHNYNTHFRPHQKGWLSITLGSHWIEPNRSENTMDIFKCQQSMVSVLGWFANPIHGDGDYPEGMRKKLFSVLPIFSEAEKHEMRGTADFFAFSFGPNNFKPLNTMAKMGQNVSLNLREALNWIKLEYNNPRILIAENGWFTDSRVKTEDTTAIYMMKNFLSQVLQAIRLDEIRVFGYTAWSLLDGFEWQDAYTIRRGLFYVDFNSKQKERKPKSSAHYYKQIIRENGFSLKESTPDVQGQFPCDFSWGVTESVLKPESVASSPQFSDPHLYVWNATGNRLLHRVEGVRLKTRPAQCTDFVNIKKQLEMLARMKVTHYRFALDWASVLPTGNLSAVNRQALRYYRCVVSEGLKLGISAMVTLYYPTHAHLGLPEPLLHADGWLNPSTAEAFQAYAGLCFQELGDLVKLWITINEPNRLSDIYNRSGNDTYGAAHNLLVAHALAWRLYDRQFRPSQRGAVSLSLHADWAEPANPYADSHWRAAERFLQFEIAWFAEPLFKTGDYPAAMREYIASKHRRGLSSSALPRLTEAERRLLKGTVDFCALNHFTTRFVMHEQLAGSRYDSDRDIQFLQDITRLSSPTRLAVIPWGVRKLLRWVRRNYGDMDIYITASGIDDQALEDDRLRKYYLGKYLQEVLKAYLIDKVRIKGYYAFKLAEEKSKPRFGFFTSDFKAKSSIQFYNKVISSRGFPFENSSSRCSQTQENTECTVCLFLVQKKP
T1 sequence (P11362 22-376 partner limits assumed): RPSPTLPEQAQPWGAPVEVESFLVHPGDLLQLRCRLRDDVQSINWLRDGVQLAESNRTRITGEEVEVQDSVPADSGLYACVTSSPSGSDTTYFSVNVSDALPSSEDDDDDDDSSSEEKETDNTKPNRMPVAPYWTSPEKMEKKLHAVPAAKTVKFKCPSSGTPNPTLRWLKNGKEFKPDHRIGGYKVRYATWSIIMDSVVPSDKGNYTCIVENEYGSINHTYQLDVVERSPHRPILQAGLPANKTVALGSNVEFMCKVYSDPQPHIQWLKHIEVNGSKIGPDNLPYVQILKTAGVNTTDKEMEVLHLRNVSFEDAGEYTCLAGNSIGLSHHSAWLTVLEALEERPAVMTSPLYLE
Method: Biotinylated FGF21 was coupled to Streptavidin-coated donor beads (AlphaScreen technology, Perkin Elmer), and the ectodomains of human FGFR4 fused to Fc (R&D Systems) or FGFR1c fused to Fc (R&D Systems) were coupled to Protein A acceptor beads (AlphaScreen technology, Perkin Elmer). Human KLB protein (R&D Systems) was added to the mixture of biotinylated-FGF21-Streptavidin donor beads and FGFR-Fc-Protein A acceptor beads, bringing the beads in close proximity producing a signal, in the presence of 5 μg/ml Heparin and 0.1% BSA. Increasing doses of FGF21 C-terminal peptides were added and if their binding to the receptor complex were to take place, the biotinylated FGF21 would be displaced to consequently decrease the signal. The EnVision Multilabel Plate Reader (Perkin Elmer) was used to quantify the emitted light signal at 570 nm.
Supplementary file mmc1.pdf: Multimedia component 1 Table S1. Nomenclature for FGF protein and C-terminal peptide analogs. Table S2. Receptor binding of C-terminal FGF21 Ala-scan peptides. IC50 values (μM, mean, n = 2) with fold-change for 21C25 Ala-scan peptides versus native peptide in a cell free AlphaScreen binding assay where the 21C25 Ala peptides competed with FGF21 to associate with the human FGFR1/KLB complex. NC denotes where IC50 values were Not Calculated due to negligible activity at the tested concentrations.

[5] = system: 293/KLB cells; assay: Agonist pERK AlphaLISA assay in 293/KLB cells; format: cell-based, human; conditions: 10 min at 37° C, n = 3
Method: as §3
as §2, with “7. Graphs are represented as relative maximal (100%) response of the positive control. All other test analog signals were adjusted accordingly as % values.” for “7.”

[6] = system: FGF19 signaling in Hep3B cells; assay: Peptide antagonism of FGF19 signaling in Hep3B cells; format: cell-based, human; conditions: n = 3
Method: as §1, §2

[7] = system: signaling of FGF23 in 293/KL cells overexpressing human Klotho; assay: Peptide antagonism of FGF23 signaling in 293/KL cells; format: cell-based; conditions: data not shown
[8] = system: signaling of FGF1 in 293/KLB cells; assay: Peptide antagonism of FGF1 signaling in 293/KLB cells; format: cell-based, human; conditions: data not shown

Substance: 19C26,A^26: 19C26 with alanine substitution of the terminal lysine; most potent peptide antagonist (PLETDSMDPFGLVTGLEAVRSPSFEA-NH2)
cFos and EGR1 mRNA levels, peptide antagonist alone ([1]; 30 mg/kg sc): no effect on cFos and EGR1 mRNA levels | Block of FGF19- or FGF21-stimulated cFos and EGR1 gene induction ([1]; antagonist 30 mg/kg sc 15 min before FGF19 or FGF21 1 mg/kg sc, one hour post dosing): completely eliminated the ability of FGF19 or FGF21 to stimulate gene induction | Antagonism of FGF19 signaling (pERK), in words [2]: at least twenty-fold greater potency | Antagonism of FGF21 signaling (pERK), in words [3]: at least twenty-fold greater potency

IC50 [4]: 50 nM
Substance: PPDVGSSDPLSMVGPSQGASPSYAS-NH2 [175 R]

Substance: FGF19: Human FGF19 (#O95750: 23–216, designated 1–194)
cFos and EGR1 transcriptional activity, FGF alone ([1]; 1 mg/kg sc, one hour): induced robust transcriptional activity in each tissue | pERK agonist activity, in words [5]: nanomolar potencies

Substance: 19C26: FGF19-based C-terminal peptide of 26 amino acids (169-194), C-terminal amide (PLETDSMDPFGLVTGLEAVRSPSFEK-NH2)
Antagonism of FGF19 signaling (pERK), in words [6]: blocked FGF19 activity comparably to that of FGF21 | Attenuation of FGF23 signaling, in words [7]: unable to attenuate signaling | Antagonism of FGF19 signaling (pERK), in words [2]: blocked FGF19 activity comparably to that of FGF21 | Attenuation of FGF1 signaling, in words [8]: unable to attenuate signaling of FGF1 | Antagonism of FGF21 signaling (pERK), in words [3]: comparable to FGF21^18−181 in their antagonistic effect

IC50 [4]: 150 nM
Substance: PPDVGSSDPLSMVGPSQARSPSYAS-NH2 [174 G]

IC50 [4]: 150 nM
Substance: PPDVGSSDPLSMVGPSQGRSPSYAS-NH2 [21C25]

Substance: 19C25: FGF19-based C-terminal peptide of 25 amino acids (LETDSMDPFGLVTGLEAVRSPSFEK-NH2)
Antagonism of FGF21 signaling (pERK), in words [3]: comparable to FGF21^18−181 in their antagonistic effect

Substance: FGF2
pERK agonist activity, in words [5]: picomolar activities

Substance: 21C22: C-terminal FGF21 peptide of 22 residues (VGSSDPLSMVGPSQGRSPSYAS-NH2; UniProt Q9NSA1 188-209, looked up, fragment)
Antagonism of FGF21 signaling (pERK), in words [3]: had no effect within the dose range examined

IC50 [4]: 50 nM
Substance: PPDVGSSDPLSMVGPSQGRSPSYAA-NH2 [181 S]
